Source: patent US7378090B2, “Alleviation of the memory deficits and memory components of psychiatric dysfunctions by altering atypical PKM activity” (The Research Foundation of State University of New York, priority 2001, dated 2008)
“Also recorded” adds a separate entry of the source.

Key:
[1] = system: Drosophila; conditions: cited from earlier work
[2] = system: Drosophila; assay: Olfactory-avoidance conditioning, learning (tested immediately after single-cycle training); assay type: in vivo; conditions: wild-type flies fed 100 μM chelerythrine for 3 h
Excerpt: In Drosophila, the best characterized assay for associative learning and memory is an odor-avoidance behavioral task (T. Tully, et al. J. Comp. Physiol. A157, 263-277 (1985) incorporated herein by reference). This classical (Pavlovian) conditioning involves exposing the flies to two odors (the conditioned stimuli, or CS), one at a time, in succession. During one of these odor exposures (the CS+), the flies are simultaneously subjected to electric shock (the unconditioned stimulus, or US), whereas exposure to the other odor (the CS−) lacks this negative reinforcement. […]
Pavlovian learning and memory in Drosophila. […] The performance index (PI) was calculated by subtracting the number of flies making the incorrect choice from those making the correct one, dividing by the total number of flies, and multiplying by 100. To avoid odor-avoidance biases, the PI of each single n was calculated by taking an average performance of two groups of flies, one group trained with the CS+ being OCT, the other with the CS+ being MCH.
(§1) A 4% (wt/vol) sucrose solution was used as a vehicle for the chelerythrine feeding. […] Feeding was monitored by placing 1/50 volume of green food coloring into the solutions, which could then be seen in the abdomens of flies after eating. […]

[3] = system: CA1 pyramidal cells; conditions: sustained application of low concentrations; cited from earlier work
[4] = system: Drosophila; assay: Olfactory-avoidance classical (Pavlovian) conditioning, memory after training; assay type: in vivo; conditions: for 24-h memory after massed training: wild-type flies fed 25, 50 or 100 μM chelerythrine in sucrose for 3 h, three cycles of massed training
Excerpt: In Drosophila, the best characterized assay for associative learning and memory is an odor-avoidance behavioral task (T. Tully, et al. J. Comp. Physiol. A157, 263-277 (1985) incorporated herein by reference). This classical (Pavlovian) conditioning involves exposing the flies to two odors (the conditioned stimuli, or CS), one at a time, in succession. During one of these odor exposures (the CS+), the flies are simultaneously subjected to electric shock (the unconditioned stimulus, or US), whereas exposure to the other odor (the CS−) lacks this negative reinforcement. Following training, the flies are then placed at a ‘choice point’, where the odors come from opposite directions, and expected to decide which odor to avoid. By convention, learning is defined as the fly's performance when testing occurs immediately after training. A single training trial produces strong learning: a typical response is that >90% of the flies avoid the CS+. Performance of wild-type flies from this single-cycle training decays over a roughly 24-hour period until flies once again distribute evenly between the two odors. Flies can also form long-lasting associative olfactory memories, but normally this requires repetitive training regimens.
Pavlovian learning and memory in Drosophila. To assess learning and memory in Drosophila, an olfactory-avoidance classical (Pavlovian) conditioning protocol was used. […] The performance index (PI) was calculated by subtracting the number of flies making the incorrect choice from those making the correct one, dividing by the total number of flies, and multiplying by 100. To avoid odor-avoidance biases, the PI of each single n was calculated by taking an average performance of two groups of flies, one group trained with the CS+ being OCT, the other with the CS+ being MCH. […]
as §1

[5] = target: T1, PKMζ (Homo sapiens, UniProt Q05513); conditions: cited from earlier work
T1 sequence (Q05513 1-409 isoform Q05513-2): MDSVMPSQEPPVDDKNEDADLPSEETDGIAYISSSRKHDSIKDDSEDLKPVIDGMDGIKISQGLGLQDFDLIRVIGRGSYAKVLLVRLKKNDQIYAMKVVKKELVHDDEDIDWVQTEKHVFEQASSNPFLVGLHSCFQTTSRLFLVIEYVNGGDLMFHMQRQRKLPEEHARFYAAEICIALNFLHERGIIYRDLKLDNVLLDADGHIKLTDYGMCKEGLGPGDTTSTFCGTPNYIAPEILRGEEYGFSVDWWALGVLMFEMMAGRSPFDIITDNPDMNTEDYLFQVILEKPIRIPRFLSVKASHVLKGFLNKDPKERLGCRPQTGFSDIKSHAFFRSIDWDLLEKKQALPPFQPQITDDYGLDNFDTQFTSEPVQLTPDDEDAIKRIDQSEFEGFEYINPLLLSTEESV

C[C@@H]1C[C@@H]([C@H](O)CC2CC(=O)NC(=O)C2)C(=O)[C@@H](C)C1 [cycloheximide]
anesthesia-resistant memory (ARM) ([1]; massed or spaced training): insensitive | memory after spaced training of radish mutants ([1]; radish mutants): completely blocked | long-term memory (LTM) ([1]; spaced training): blocked

COc1ccc2c(c[n+](C)c3c4cc5c(cc4ccc23)OCO5)c1OC [chelerythrine]
learning [2]: not different; also recorded: unaffected | LTP maintenance [3]: abolished | 24-h memory after massed training [4]: inhibited 24-hour memory formation in a dose-dependent manner | 24-h memory after massed training ([4]; listed as Chelerythrine): inhibits 24-h memory after massed training in a dose-dependent manner | inhibition of other PKC isotypes ([5]; higher concentrations): inhibits other PKC isotypes at higher concentrations | inhibition of PKMζ ([5]; low concentrations): selectively inhibit PKMζ at low concentrations

B1: FL-MaPKCζ: full-length (FL) mouse atypical PKCζ expressed from heat-shock transgene (protein, UniProt Q02956 1-592, looked up)
chain: MPSRTDPKMDRSGGRVRLKAHYGGDILITSVDAMTTFKDLCEEVRDMCGLHQQHPLTLKWVDSEGDPCTVSSQMELEEAFRLVCQGRDEVLIIHVFPSIPEQPGMPCPGEDKSIYRRGARRWRKLYRANGHLFQAKRFNRGAYCGQCSERIWGLSRQGYRCINCKLLVHKRCHVLVPLTCRRHMDSVMPSQEPPVDDKNDGVDLPSEETDGIAYISSSRKHDNIKDDSEDLKPVIDGVDGIKISQGLGLQDFDLIRVIGRGSYAKVLLVRLKKNDQIYAMKVVKKELVHDDEDIDWVQTEKHVFEQASSNPFLVGLHSCFQTTSRLFLVIEYVNGGDLMFHMQRQRKLPEEHARFYAAEICIALNFLHERGIIYRDLKLDNVLLDADGHIKLTDYGMCKEGLGPGDTTSTFCGTPNYIAPEILRGEEYGFSVDWWALGVLMFEMMAGRSPFDIITDNPDMNTEDYLFQVILEKPIRIPRFLSVKASHVLKGFLNKDPKERLGCRPQTGFSDIKSHAFFRSIDWDLLEKKQTLPPFQPQITDDYGLDNFDTQFTSEPVQLTPDDEDVIKRIDQSEFEGFEYINPLLLSAEESV
modifications: full-length
notes: full-length (FL) mouse atypical PKCζ expressed from heat-shock transgene
24-hour memory after single-cycle training ([4]; transgene induced by 30-min 32° C. heat shock after training): not observed
